Data from US20020193850A1, “Use of photodynamic therapy to treat prostatic tissue” (priority 1993, published 2002).
Where two headings read alike, the source gives them in different places. Marks after values point to notes of the source that are not given here.

Legend:
[1] = 1.0 mg/kg, 24 hours after injection
Procedure: (§1) Animals: Adult mongrel dogs were used in all experiments. Dogs were housed 1/cage and given water and canine chow (Purina Chow, Ralston Purina Corp.) ad libitum.
(§2) Photosensitive composition: The photosensitizer, tin ethyl etiopurpurin was used. The photosensitizer was administered in anesthetized (xylazine/ketamine) dogs as an emulsion via antecubital vein 24 hours prior to light treatment.
Photosensitizer extraction: The animals were injected with 1.0 mg/kg of the photosensitizer. Twenty-four hours later, prostate and other tissues were removed from euthanized animals. Tissue samples were removed from the periurethral prostate and the more peripheral regions. Additionally, the mucosa of the urethra was dissected and its photosensitizer content determined. Bladder mucosa and muscularis were also removed. Tissue was weighed and homogenized with a biohomogenizer (Biospec Products, Inc., Bartleville, Okla.) in 3% acetic acid. After homogenization, a 3:1 ethyl acetate:glacial acetic acid mixture was added and mixed vigorously. The sample was then frozen at −20° C. for at least two hours after which it was thawed and saturated sodium acetate added. The ethyl acetate layer, containing the photosensitizer, was removed and its concentration determined using absorbance spectrophotometry (Response II spectrophotomer, Gilford, Oberlin, Ohio).

prostatic tissue = experiment: Transurethral photodynamic therapy of the prostate
Procedure: as §1, §2
Light source and delivery: An LTI 660 dye laser (PDT Systems, Santa Barbara, Calif.) pumped by a KTP/YAG laser (Laserscope, San Jose, Calif.), was used as a light source. Laser light was delivered to the prostate via a 400 micron optical fiber fitted with a 2.0 cm flexible cylindrical diffuser tip (PDT Systems, Inc., Santa Barbara, Calif.).
Tissue Preparation: On removal, the prostates were photographed and then fixed in a 10% buffered formalin solution. After fixation, tissue was sectioned at 5u intervals and stained with H & E. Sections of the urinary bladder were removed and prepared in a similar manner.
Prostate treatment: The animals were injected with 1.0 mg/kg of the photosensitizer. Twenty-four hours after photosensitizer administration the animals were anesthetized with intravenous sodium barbiturate. The animals were intubated and maintained on a respirator during light treatment. They were treated in the dorsolithotomy position. The 2 cm. diffusing tip of the laser fiber was localized in the prostatic urethra under transrectal ultrasound guidance. A Bruel and Kreuger 7.0 megahertz ultrasound scanner with a transrectal probe was used. The laser fiber was placed within a transparent 10F Stamey catheter (TFX Medical, Duluth, Ga.) which was used as a laser fiber carrier. The tip of the catheter was positioned immediately outside the bladder neck. Once positioned, the prostate was treated with 300 (260 mW/cm^2) joules of laser light. The animals were then recovered and returned to their cages, Indwelling catheters were not used after treatment.

R3327AT prostate tumor [2] = experiment: R3327AT prostate tumor model, photodynamic therapy with 659 YAG or 660 Dye laser (Example 3); type: in vivo, male Copenhagen rats; conditions: 1.5 mg/kg
Procedure: The R3327AT prostate tumor model was used in male Copenhagen rats which were injected with 1.5 mg/kg body wt. of SnET2 (Tin Ethyl Etiopurpurin Emulsion, PDT Pharmaceuticals). Each rat had one flank tumor (R3327AT). After two weeks, the tumors ranged from 1.0 to 1.6 cm in length. Twenty four hours (+/−2 hrs.) after SnET2 injection the tumor area received photodynamic therapy using either a 659 YAG or 660 Dye laser fiber optically coupled to a 3-way fiber splitter.
Tumor temperatures were monitored using a 23 gge. hypodermic probe (YSI) placed percutaneously beneath the treated tumor. If needed, the tumors were cooled by a jet of cool air. Tumor diameters were measured and recorded three times per week.
Tumor growth was monitored by calculating volumes from the recorded measurements of tumor width, height and length. The rate of growth is presented as the number of days required for an individual tumor to reach 2, 5 or 10 times initial volume. This method of analysis of tumor growth accounts for variations due to differing initial tumor volume (Gibson and Hilf, Cancer Research, 1990). […] Only at the 200 Joule fluence level was there any significant difference between the YAG and Dye lasers in producing tumor growth delay.

R3327AT prostate tumor [3] = experiment: R3327AT prostate tumor model, photodynamic therapy, tumor growth delay (Example 2); type: in vivo, male Copenhagen rats; conditions: drug dose 1.5 mg/kg
Procedure: The R3327AT prostate tumor model was used in male Copenhagen rats which were injected with 1.5 mg/kg body wt. of SnET2 (tin ethyl etiopurpurin Emulsion, (0.94 mg/ml) PDT Pharmaceuticals). Each rat had one flank tumor (R3327AT). After two weeks, the tumors ranged from 1.0 to 1.6 cm in length. Twenty four hours after TEP injection, the tumor area received photodynamic therapy with a light source of a KTP pumped 660 dye laser (PDT Systems). The KTP/660 dye laser was tuned to 660 nm; power density: 200 mw/cm^2; light dose: 0, 200, 300 and 400 Joules. Tumor temperatures were monitored using a 23 gge. hypodermic probe (YSI) placed percutaneously beneath the treated tumor. If needed, the tumors were cooled by a jet of cool air. Tumors were measured and recorded three times per week.
The linear regression of tumor growth (represented as tumor volume) for each rat was plotted. The number of days it took the treated tumors to reach their initial tumor volume at the time of treatment was determined by the intercept with a horizontal line drawn at the mean initial tumor volume for all groups. The mean number of days for each light/drug dose group to reach its initial tumor size is recorded in Table 3 below.

[4] = Mean +/- SD, listed as Photosensitizer, 1 mg/kg

CCOC(=O)C1=Cc2c3nc(cc4nc(cc5[n-]c(cc6[n-]c2c(C)c6CC)c(C)c5CC)C(C)=C4CC)[C@@H](C)[C@]13CC.[Cl-].[Cl-].[Sn] (racemic) [SnET2, tin ethyl etiopurpurin]
Tissue levels of photosensitizer compared with plasma levels [1]: significantly greater than plasma levels
Photosensitizer concentration, Bladder ([1]; Dog 1): 0.2 µg/g
Photosensitizer concentration, Prostate ([1]; Dog 1): 2.1 * ug/g
Photosensitizer concentration, Urethra ([1]; Dog 1): 0.5 µg/g
Photosensitizer concentration, Bladder ([1]; Dog 2): 0.2 µg/g
Photosensitizer concentration, Kidney ([1]; Dog 2): 2.5 µg/g
Photosensitizer concentration, Liver ([1]; Dog 2): 6.7 µg/g
Photosensitizer concentration, Muscle ([1]; Dog 2): 0.3 µg/g
Photosensitizer concentration, Plasma (24-hr) ([1]; Dog 2): 0.1 * * ug/ml
Photosensitizer concentration, Prostate ([1]; Dog 2): 0.8 µg/g
Photosensitizer concentration, Spleen ([1]; Dog 2): 0.8 µg/g
Photosensitizer concentration, Urethra ([1]; Dog 2): 0.3 µg/g
Photosensitizer concentration, Bladder ([1]; Dog 3): 0.2 µg/g
Photosensitizer concentration, Kidney ([1]; Dog 3): 2.9 µg/g
Photosensitizer concentration, Liver ([1]; Dog 3): 6.1 µg/g
Photosensitizer concentration, Muscle ([1]; Dog 3): 0.2 µg/g
Photosensitizer concentration, Plasma (24-hr) ([1]; Dog 3): 0.1 µg/mL
Photosensitizer concentration, Prostate ([1]; Dog 3): 0.9 µg/g
Photosensitizer concentration, Spleen ([1]; Dog 3): 0.8 µg/g
Photosensitizer concentration, Urethra ([1]; Dog 3): 0.2 µg/g
Photosensitizer concentration, Kidney ([1]; Mean +/- SD): 2.7 ± 0.2 µg/g
Photosensitizer concentration, Liver ([1]; Mean +/- SD): 6.7 ± 0.2 µg/g
Photosensitizer concentration, Muscle ([1]; Mean +/- SD): 0.3 ± 0.1 µg/g
Photosensitizer concentration, Plasma (24-hr) ([1]; Mean +/- SD): 0.1 ± 0 µg/mL
Photosensitizer concentration, Spleen ([1]; Mean +/- SD): 0.8 ± 0 µg/g
Photosensitizer concentration, Bladder [1, 4]: 0.2 ± 0 µg/g
Photosensitizer concentration, Prostate [1, 4]: 1.3 ± 0.6 µg/g
Photosensitizer concentration, Urethra [1, 4]: 0.3 ± 0.1 µg/g
Prostate effects of photosensitizer and light (prostatic tissue; 1.0 mg/kg, light 24 hours later, 300 joules (260 mW/cm^2), transurethral): showed evidence of a photodynamic effect
Urethral mucosa (prostatic tissue; 3 weeks following treatment, 1.0 mg/kg, 300 joules): The urethral mucosa had regenerated
Urethral epithelium (prostatic tissue; 48 hours following photodynamic therapy, 1.0 mg/kg, 300 joules): loss of the urethral epithelium
Animal recovery: voiding (prostatic tissue; after photodynamic therapy, no indwelling catheter, 1.0 mg/kg, 300 joules): All animals were able to void spontaneously
Animal recovery: hematuria (prostatic tissue; after photodynamic therapy, 1.0 mg/kg, 300 joules): Two of the animals developed gross hematuria
Changes in the bladder (prostatic tissue; after photodynamic therapy, believed due to movement or inaccurate placement of the light guide): In two of the animals there were extensive changes in the bladder
Histology of prostate (prostatic tissue; prostate removed 3 weeks following treatment, 1.0 mg/kg, 300 joules): glandular atrophy and replacement with fibrous tissue
Histologic examination of prostate around the urethra (prostatic tissue; prostates removed 48 hours following photodynamic therapy, 1.0 mg/kg, 300 joules): extensive hemmorhagic necrosis
Difference between 660 Dye and 659 YAG lasers as light source for photodynamic therapy (R3327AT prostate tumor [2]; 200 mw/cm^2, significant difference only at the 200 Joule fluence level): no consistent significant difference
Tumor growth delay from initial to 2 times initial volume as compared to controls (R3327AT prostate tumor [2]; 659 YAG and 660 Dye lasers, 200-400 Joules, especially at the 400 Joule level): effective in delaying tumor growth
# of Days of Growth Delay (R3327AT prostate tumor [3]; Group II: light dose 0 Joules): 0 days
# of Days of Growth Delay (R3327AT prostate tumor [3]; Group III: light dose 200 Joules, 660 nm, 200 mw/cm^2): 6.2 ± 1.2 days
# of Days of Growth Delay (R3327AT prostate tumor [3]; Group IV: light dose 300 Joules, 660 nm, 200 mw/cm^2): 5.8 ± 0.8 days
# of Days of Growth Delay (R3327AT prostate tumor [3]; Group V: light dose 400 Joules, 660 nm, 200 mw/cm^2): 11.4 ± 3.7 days
